# Measurements as given in the NIST ThermoML archive (doi:10.1016/j.tca.2019.01.021).
# ± gives the expanded uncertainty stated by the source.
# Assay: molar enthalpy of vaporization or sublimation
# Settings: 298.15 K; Crystal; Static calorimetry
smiles,measurement,value
OCCc1c[nH]c2ccccc12 [2-(1H-indol-3-yl)ethanol],molar enthalpy,28.6 ± 0.598 kcal/mol
